Reference: ChEMBL document CHEMBL4152250, “Antibacterial and anti-TB tat-peptidomimetics with improved efficacy and half-life” (Eur J Med Chem, 2018)
In brackets after ≈: the same amount, converted by molar mass. Numbered stars: 1 amine (or outer) side, 2 acyl side, 3 side chain; on linkers, the order of the positions; unused ones are H or OH. Square brackets hold non-standard residues; d marks the D form. Peptide text beside a SMILES is read from it. Pro(cis-4-guanidino) = NC(N)=N[C@@H]1CN[C@H](C(=O)O)C1; X1 = NCCCN1C[C@@H](N[*:1])C[C@H]1C(=O)[*:2]; Ethylenediamine = C(CN[*:2])N[*:1]; βAla = NCCC(=O)O

Assays:
[1] = system: Escherichia coli; assay: Antibacterial activity against Escherichia coli NCIM 2688 after 8 hrs by serial dilution method; assay type: functional, organism-based; details: NCIM 2688, 8 h
[2] = system: Pseudomonas aeruginosa; assay: Antibacterial activity against Pseudomonas aeruginosa NCIM 2036 after 8 hrs by serial dilution method; assay type: functional, organism-based; details: NCIM 2036, 8 h
[3] = system: Bacillus subtilis; assay: Antibacterial activity against Bacillus subtilis NCIM 2079 after 12 hrs by serial dilution method; assay type: functional, organism-based; details: NCIM 2079, 12 h
[4] = system: Staphylococcus aureus; assay: Antibacterial activity against Staphylococcus aureus NCIM 2010 after 12 hrs by serial dilution method; assay type: functional, organism-based; details: NCIM 2010, 12 h
[5] = system: Mycobacterium tuberculosis; assay: Antitubercular activity against dormant stage of Mycobacterium tuberculosis H37Ra ATCC 25177 after 12 days by XRMA; assay type: functional, organism-based; details: H37Ra ATCC 25177, 288 h
[6] = system: Mycobacterium tuberculosis; assay: Antitubercular activity against active stage of Mycobacterium tuberculosis H37Ra ATCC 25177 after 8 days by XRMA; assay type: functional, organism-based; details: H37Ra ATCC 25177, 192 h
[7] = Cytotoxicity against human HeLa cells assessed as cell viability at 1 to 10 uM after 24 hrs by MTT assay relative to control; assay type: cell-based; details: read-out: Activity
[8] = system: Enterobacter sp.; assay: Antibacterial activity against Enterobacter sp. NCIM 5392 after 8 hrs by serial dilution method; assay type: functional, organism-based; details: NCIM 5392, 8 h
[9] = system: Staphylococcus epidermidis; assay: Antibacterial activity against Staphylococcus epidermidis NCIM 5270 after 12 hrs by serial dilution method; assay type: functional, organism-based; details: NCIM 5270, 12 h

Structure (SMILES)	IC50 [1] [nM]	MIC [1] [µM]	IC50 [2] [nM]	MIC [2] [µM]	IC50 [3] [nM]	MIC [3] [µM]	IC50 [4] [nM]	MIC [4] [µM]	IC50 [5] [nM]	MIC [5] [µM]	IC50 [6] [nM]	MIC [6] [µM]	viability at 24 h, up to 10 µM [7] [%]	IC50 [8] [nM]	MIC [8] [µM]	IC50 [9] [nM]	MIC [9] [µM]
CC(=O)N[C@@H](Cc1ccccc1)C(=O)NCC(=O)N1C[C@@H](NC(=N)N)C[C@H]1C(=O)N[C@@H](CCCCN)C(=O)N[C@@H](CCCCN)C(=O)N[C@@H](CCCNC(=N)N)C(=O)N1C[C@@H](NC(=N)N)C[C@H]1C(=O)N[C@@H](CCC(N)=O)C(=O)N1C[C@@H](NC(=N)N)C[C@H]1C(=O)N[C@@H](CCCNC(=N)N)C(=O)N1C[C@@H](NC(=N)N)C[C@H]1C(=O)NCCC(N)=O (Ac-FG[Pro(cis-4-guanidino)]KKR[Pro(cis-4-guanidino)]Q[Pro(cis-4-guanidino)]R[Pro(cis-4-guanidino)][βAla]-NH2)	223	27.7 (≈ 45.7 µg/mL)	63	26 (≈ 42.8 µg/mL)	143	15.1 (≈ 24.9 µg/mL)	92	5.59 (≈ 9.21 µg/mL)	1910	29.4 (≈ 48.4 µg/mL)	7440	53.9 (≈ 88.8 µg/mL)	≥ 80	–	–	–	–
CC(=O)N[C@@H](Cc1ccccc1)C(=O)NCC(=O)N[C@H]1C[C@@H](C(=O)N[C@@H](CCCCN)C(=O)N[C@@H](CCCCN)C(=O)N[C@@H](CCCNC(=N)N)C(=O)N[C@H]2C[C@@H](C(=O)N[C@@H](CCC(N)=O)C(=O)N[C@@H](CCCNC(=N)N)C(=O)N[C@@H](CCCNC(=N)N)C(=O)N[C@H]3C[C@@H](C(=O)NCCC(N)=O)N(CCCN)C3)N(CCCN)C2)N(CCCN)C1 (Ac-FG[X1]KKR[X1]QRR[X1][βAla]-NH2)	16.5	3.52 (≈ 5.97 µg/mL)	8.2	2.32 (≈ 3.93 µg/mL)	12.4	4.16 (≈ 7.05 µg/mL)	10.6	3.02 (≈ 5.12 µg/mL)	2240	26.3 (≈ 44.6 µg/mL)	4500	43 (≈ 72.9 µg/mL)	≥ 80	12.4	4.65 (≈ 7.88 µg/mL)	33	7.25 (≈ 12.3 µg/mL)
CC(=O)N[C@@H](Cc1ccccc1)C(=O)NCC(=O)N[C@H]1C[C@@H](C(=O)N[C@@H](CCCCN)C(=O)N[C@@H](CCCCN)C(=O)N[C@@H](CCCNC(=N)N)C(=O)N[C@H]2C[C@@H](C(=O)N[C@@H](CCC(N)=O)C(=O)N[C@H]3C[C@@H](C(=O)N[C@@H](CCCNC(=N)N)C(=O)N[C@H]4C[C@@H](C(=O)NCCN)N(CCCN)C4)N(CCCN)C3)N(CCCN)C2)N(CCCN)C1 (Ac-FG[X1]KKR[X1]Q[X1]R[X1]-Ethylenediamine)	7	2.34 (≈ 3.93 µg/mL)	7	2.2 (≈ 3.7 µg/mL)	5.8	3.79 (≈ 6.37 µg/mL)	13.4	3.02 (≈ 5.07 µg/mL)	1420	18.3 (≈ 30.7 µg/mL)	4920	34.4 (≈ 57.8 µg/mL)	≥ 80	11	4.51 (≈ 7.58 µg/mL)	7	3.94 (≈ 6.62 µg/mL)
CC1(C)S[C@@H]2[C@H](NC(=O)[C@H](N)c3ccccc3)C(=O)N2[C@H]1C(=O)O [AMPICILLIN]	146	4.17 (≈ 1.46 µg/mL)	436	12.5 (≈ 4.37 µg/mL)	1000	29.5 (≈ 10.3 µg/mL)	100	2.8 (≈ 0.978 µg/mL)	–	–	–	–	–	–	–	–	–
NC[C@H]1O[C@H](O[C@H]2[C@H](O)[C@@H](O[C@H]3O[C@H](CO)[C@@H](O)[C@H](N)[C@H]3O)[C@H](N)C[C@@H]2N)[C@H](O)[C@@H](O)[C@@H]1O [KANAMYCIN]	162	3.3 (≈ 1.6 µg/mL)	49	1.01 (≈ 0.489 µg/mL)	135	2.8 (≈ 1.36 µg/mL)	300	> 61.9	–	–	–	–	–	–	–	–	–
NC(=O)c1cnccn1 [PYRAZINAMIDE]	–	–	–	–	–	–	–	–	–	> 100	–	> 100	–	–	–	–	–
CO[C@H]1/C=C/O[C@@]2(C)Oc3c(C)c(O)c4c(O)c(c(/C=N/N5CCN(C)CC5)c(O)c4c3C2=O)NC(=O)/C(C)=C\C=C\[C@H](C)[C@H](O)[C@@H](C)[C@@H](O)[C@@H](C)[C@H](OC(C)=O)[C@@H]1C [RIFAMPIN]	–	–	–	–	–	–	–	–	–	0.91 (≈ 0.749 µg/mL)	–	0.97 (≈ 0.798 µg/mL)	–	–	–	–	–
